# Measurements as given in patent publication US20120329749A1, “Methods Of Preventing Or Treating Disease States Related To Certain Metabolic Abnormalities” (priority 2011, published 2012).
# Tested on: erectile dysfunction
# Assay: Patient-reported erectile dysfunction symptoms
# Method: The patient was placed on a regimen of 5,0 mg L-methylfolate and 2 mg methyl-B12 per day.
# The patient was placed on a regimen of 2.8 mg L-methylfolate and 2 mg methyl-B12 per day.
# The patient was placed on a regimen of 5.0 mg L-methylfolate and 2 mg methyl-B12 per day.
# The patient was placed on a regimen of L-methylfolate, methyl-B12, and pyridoxal-5-phosphate (PSP; active vitamin B6) twice per day.
# The patient was placed on a regimen of L-methylfolate, methyl-B12, and pyridoxal-5-phosphate (P5P; active vitamin B6) twice per day.
smiles,measurement,setting,value
CCCc1nn(C)c2c(=O)[nH]c(-c3cc(S(=O)(=O)N4CCN(C)CC4)ccc3OCC)nc12 [Viagra],effect on erectile dysfunction (patient history),"Patient 20, 50 mg for 2 months",ineffective
same,effect on erectile dysfunction (patient history),"Patient 21, 20 mg for 1 month",ineffective
